Values after ≈ are worked out from the molar mass of the structure shown.
Experiments:
[1] = tested on: Pseudomonas aeruginosa PAO1-Xen41; assay: EC50 of growth/kill rate concentration-effect curve
Protocol: (§1)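 Time-kill assays of bioluminescent P. aeruginosa PAO1-Xen41 (start ~5e6 CFU/mL) in 96-well plates at 37 °C, 150 rpm. Luminescence was read hourly for 20 h in cation-adjusted Mueller-Hinton broth, either non-conditioned (MH broth with or without supplements) or conditioned by one of 13 CF-associated species, then filter-sterilised and nutrient-replenished. Growth/kill rates came from log-linear regression of the exponential phase at 9-10 antibiotic concentrations, and Hill (Emax) models were fitted with drc for each replicate.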

[2] = tested on: Pseudomonas aeruginosa PAO1-Xen41; assay: Hill coefficient of concentration-effect curve (unitless); higher = steeper concentration-effect curve
Protocol: as §1

[3] = tested on: Pseudomonas aeruginosa PAO1-Xen41; assay: Emax, maximal drug effect on net growth rate (fitted lower asymptote) (per hour (slope of log luminescence)); higher = weaker maximal killing (less negative)
Protocol: as §1

CC(C)(O/N=C(\C(=O)N[C@@H]1C(=O)N2C(C(=O)[O-])=C(C[n+]3ccccc3)CS[C@H]12)c1csc(N)n1)C(=O)O [ceftazidime]
Conditions | EC50, [1] [µg/mL] | Emax, [3] | Hill coefficient, [2]
medium (conditioned by secondary species or non-conditioned control): A. baumannii | 1.62 (≈ 2.96 µM) | -0.122 | 2.12
medium (conditioned by secondary species or non-conditioned control): A. fumigatus | 2.05 (≈ 3.75 µM) | -0.109 | 3.33
medium (conditioned by secondary species or non-conditioned control): A. xylosoxidans | 1.6 (≈ 2.92 µM) | -0.132 | 2.19
medium (conditioned by secondary species or non-conditioned control): B. cepacia | 1.15 (≈ 2.11 µM) | -0.138 | 2.53
medium (conditioned by secondary species or non-conditioned control): C. albicans | 2.02 (≈ 3.69 µM) | -0.126 | 3.16
medium (conditioned by secondary species or non-conditioned control): H. influenzae | 1.86 (≈ 3.41 µM) | -0.223 | 2.268
medium (conditioned by secondary species or non-conditioned control): M. abcessus | 1.17 (≈ 2.15 µM) | -0.0538 | 3.08
medium (conditioned by secondary species or non-conditioned control): M. avium | 1.19 (≈ 2.19 µM) | -0.0876 | 3.59
medium (conditioned by secondary species or non-conditioned control): M. catarrhalis | 1.12 (≈ 2.05 µM) | -0.166 | 3.76
medium (conditioned by secondary species or non-conditioned control): MH broth | 1.28 (≈ 2.33 µM) | -0.0573 | 3
medium (conditioned by secondary species or non-conditioned control): MH broth + ADC | 1.27 | -0.0561 | 3.55
medium (conditioned by secondary species or non-conditioned control): MH broth + LHB + NAD | 0.743 | -0.133 | 5.89
medium (conditioned by secondary species or non-conditioned control): MH broth + glucose | 1.71 | -0.0864 | 2.61
medium (conditioned by secondary species or non-conditioned control): R. mannitolilytica | 1.067 (≈ 1.95 µM) | -0.0734 | 3.02
medium (conditioned by secondary species or non-conditioned control): S. aureus | 1.12 (≈ 2.05 µM) | -0.069 | 3.04
medium (conditioned by secondary species or non-conditioned control): S. maltophilia | 0.702 (≈ 1.28 µM) | -0.139 | 3.32
medium (conditioned by secondary species or non-conditioned control): S. pneumoniae | 1.71 (≈ 3.12 µM) | -0.159 | 3.31

CO[C@H]1/C=C/O[C@@]2(C)Oc3c(C)c(O)c4c(O)c(c(/C=N/N5CCN(C)CC5)c(O)c4c3C2=O)NC(=O)/C(C)=C\C=C\[C@H](C)[C@H](O)[C@@H](C)[C@@H](O)[C@@H](C)[C@H](OC(C)=O)[C@@H]1C [rifampicin]
Conditions | EC50, [1] [µg/mL] | Emax, [3] | Hill coefficient, [2]
medium (conditioned by secondary species or non-conditioned control): A. baumannii | 58.4 (≈ 71 µM) | -0.428 | 2.64
medium (conditioned by secondary species or non-conditioned control): A. fumigatus | 16.6 (≈ 20.2 µM) | -0.427 | 1.865
medium (conditioned by secondary species or non-conditioned control): A. xylosoxidans | 60.8 (≈ 73.9 µM) | -0.447 | 3.63
medium (conditioned by secondary species or non-conditioned control): B. cepacia | 53.9 (≈ 65.4 µM) | -0.4437 | 4.03
medium (conditioned by secondary species or non-conditioned control): C. albicans | 26.5 (≈ 32.2 µM) | -0.543 | 2.68
medium (conditioned by secondary species or non-conditioned control): H. influenzae | 18.7 (≈ 22.7 µM) | -0.165 | 5.03
medium (conditioned by secondary species or non-conditioned control): M. abcessus | 43.2 (≈ 52.5 µM) | -0.468 | 2.15
medium (conditioned by secondary species or non-conditioned control): M. avium | 72 (≈ 87.5 µM) | -1.04 | 0.999
medium (conditioned by secondary species or non-conditioned control): M. catarrhalis | 58.7 (≈ 71.4 µM) | -0.151 | 2.74
medium (conditioned by secondary species or non-conditioned control): MH broth | 31.7 (≈ 38.5 µM) | -0.425 | 2.61
medium (conditioned by secondary species or non-conditioned control): MH broth + ADC | 83.3 | -1.1 | 0.89
medium (conditioned by secondary species or non-conditioned control): MH broth + LHB + NAD | 25.2 | -0.141 | 3.8
medium (conditioned by secondary species or non-conditioned control): MH broth + glucose | 26.7 | -0.552 | 2.46
medium (conditioned by secondary species or non-conditioned control): R. mannitolilytica | 40.4 (≈ 49 µM) | -0.4494 | 5.28
medium (conditioned by secondary species or non-conditioned control): S. aureus | 43.6 (≈ 53 µM) | -0.461 | 2.1
medium (conditioned by secondary species or non-conditioned control): S. maltophilia | 51.8 (≈ 62.9 µM) | -0.437 | 3.3
medium (conditioned by secondary species or non-conditioned control): S. pneumoniae | 20.8 (≈ 25.3 µM) | -0.142 | 4.69

CCC(C)CCCC(=O)N[C@@H](CCN)C(=O)N[C@H](C(=O)N[C@@H](CCN)C(=O)N[C@H]1CCNC(=O)[C@H]([C@@H](C)O)NC(=O)[C@H](CCN)NC(=O)[C@H](CCN)NC(=O)[C@H](CC(C)C)NC(=O)[C@@H](CC(C)C)NC(=O)[C@H](CCN)NC1=O)[C@@H](C)O (some centres undefined) [colistin]
Conditions | EC50, [1] [µg/mL] | Emax, [3] | Hill coefficient, [2]
medium (conditioned by secondary species or non-conditioned control): A. baumannii | 3.78 (≈ 3.27 µM) | -0.97093 | 5.23
medium (conditioned by secondary species or non-conditioned control): A. fumigatus | 4 (≈ 3.47 µM) | -1.07 | 0.809
medium (conditioned by secondary species or non-conditioned control): A. xylosoxidans | 3.71 (≈ 3.21 µM) | -0.971 | 4.77
medium (conditioned by secondary species or non-conditioned control): B. cepacia | 2.64 (≈ 2.28 µM) | -1.015 | 1.13
medium (conditioned by secondary species or non-conditioned control): C. albicans | 1.65 (≈ 1.43 µM) | -0.9963 | 1.39
medium (conditioned by secondary species or non-conditioned control): H. influenzae | 0.634 (≈ 0.549 µM) | -0.1151 | 7.12
medium (conditioned by secondary species or non-conditioned control): M. abcessus | 1.56 (≈ 1.35 µM) | -0.976 | 2.24
medium (conditioned by secondary species or non-conditioned control): M. avium | 1.04 (≈ 0.899 µM) | -0.954 | 1.72
medium (conditioned by secondary species or non-conditioned control): M. catarrhalis | 0.325 (≈ 0.282 µM) | -0.139 | 14.6
medium (conditioned by secondary species or non-conditioned control): MH broth | 1.45 (≈ 1.26 µM) | -0.963 | 2.54
medium (conditioned by secondary species or non-conditioned control): MH broth + ADC | 0.607 | -0.901 | 11.8
medium (conditioned by secondary species or non-conditioned control): MH broth + LHB + NAD | 0.324 | -0.156 | 12.4
medium (conditioned by secondary species or non-conditioned control): MH broth + glucose | 1.22 | -0.9802 | 2.92
medium (conditioned by secondary species or non-conditioned control): R. mannitolilytica | 1.32 (≈ 1.14 µM) | -0.958 | 1.77
medium (conditioned by secondary species or non-conditioned control): S. aureus | 1.08 (≈ 0.939 µM) | -0.966 | 2.47
medium (conditioned by secondary species or non-conditioned control): S. maltophilia | 3.83 (≈ 3.31 µM) | -0.97063 | 7.36
medium (conditioned by secondary species or non-conditioned control): S. pneumoniae | 0.325 (≈ 0.281 µM) | -0.117 | 7.9

NC[C@H]1O[C@H](O[C@H]2[C@H](O)[C@@H](O[C@H]3O[C@H](CO)[C@@H](O)[C@H](N)[C@H]3O)[C@H](N)C[C@@H]2N)[C@H](N)C[C@@H]1O [tobramycin]
Conditions | EC50, [1] [µg/mL] | Emax, [3] | Hill coefficient, [2]
medium (conditioned by secondary species or non-conditioned control): A. baumannii | 0.257 (≈ 0.55 µM) | -0.121 | 16.7
medium (conditioned by secondary species or non-conditioned control): A. fumigatus | 0.7033 (≈ 1.5 µM) | -0.188 | 4.28
medium (conditioned by secondary species or non-conditioned control): A. xylosoxidans | 0.2759 (≈ 0.59 µM) | -0.157 | 14.8
medium (conditioned by secondary species or non-conditioned control): B. cepacia | 0.144 (≈ 0.308 µM) | -0.131 | 10.6
medium (conditioned by secondary species or non-conditioned control): C. albicans | 0.565 (≈ 1.21 µM) | -0.214 | 3.52
medium (conditioned by secondary species or non-conditioned control): H. influenzae | 0.185 (≈ 0.397 µM) | -0.126 | 14.4
medium (conditioned by secondary species or non-conditioned control): M. abcessus | 0.135 (≈ 0.288 µM) | -0.095 | 4.76
medium (conditioned by secondary species or non-conditioned control): M. avium | 0.201 (≈ 0.429 µM) | -0.17 | 9.2
medium (conditioned by secondary species or non-conditioned control): M. catarrhalis | 0.145 (≈ 0.31 µM) | -0.134 | 9.95
medium (conditioned by secondary species or non-conditioned control): MH broth | 0.136 (≈ 0.29 µM) | -0.122 | 5.72
medium (conditioned by secondary species or non-conditioned control): MH broth + ADC | 0.197 | -0.172 | 11.3
medium (conditioned by secondary species or non-conditioned control): MH broth + LHB + NAD | 0.138 | -0.116 | 10.7
medium (conditioned by secondary species or non-conditioned control): MH broth + glucose | 0.393 | -0.21 | 3.39
medium (conditioned by secondary species or non-conditioned control): R. mannitolilytica | 0.0784 (≈ 0.168 µM) | -0.107 | 8.12
medium (conditioned by secondary species or non-conditioned control): S. aureus | 0.0695 (≈ 0.149 µM) | -0.121 | 10
medium (conditioned by secondary species or non-conditioned control): S. maltophilia | 0.137 (≈ 0.293 µM) | -0.197 | 6.76
medium (conditioned by secondary species or non-conditioned control): S. pneumoniae | 0.471 (≈ 1.01 µM) | -0.128 | 12.4

O=C(O)c1cn(C2CC2)c2cc(N3CCNCC3)c(F)cc2c1=O [ciprofloxacin]
Conditions | EC50, [1] [µg/mL] | Emax, [3] | Hill coefficient, [2]
medium (conditioned by secondary species or non-conditioned control): A. baumannii | 0.0737 (≈ 0.222 µM) | -0.126 | 4.99
medium (conditioned by secondary species or non-conditioned control): A. fumigatus | 0.08478 (≈ 0.256 µM) | -0.125 | 6.73
medium (conditioned by secondary species or non-conditioned control): A. xylosoxidans | 0.0394 (≈ 0.119 µM) | -0.0897 | 5.96
medium (conditioned by secondary species or non-conditioned control): B. cepacia | – | -0.0915 | 3.61
medium (conditioned by secondary species or non-conditioned control): C. albicans | 0.08689 (≈ 0.262 µM) | -0.0975 | 6.2
medium (conditioned by secondary species or non-conditioned control): H. influenzae | 0.0686 (≈ 0.207 µM) | -0.124 | 4.89
medium (conditioned by secondary species or non-conditioned control): M. abcessus | 0.046 (≈ 0.139 µM) | -0.124 | 4.82
medium (conditioned by secondary species or non-conditioned control): M. avium | 0.0646 (≈ 0.195 µM) | -0.0922 | 3.72
medium (conditioned by secondary species or non-conditioned control): M. catarrhalis | 0.0542 (≈ 0.164 µM) | -0.0659 | 1.71
medium (conditioned by secondary species or non-conditioned control): MH broth | 0.0844 (≈ 0.255 µM) | -0.125 | 6.8
medium (conditioned by secondary species or non-conditioned control): MH broth + ADC | 0.0577 | -0.11 | 3.02
medium (conditioned by secondary species or non-conditioned control): MH broth + LHB + NAD | 0.0388 | -0.106 | 4.99
medium (conditioned by secondary species or non-conditioned control): MH broth + glucose | 0.0437 | -0.101 | 5.64
medium (conditioned by secondary species or non-conditioned control): R. mannitolilytica | 0.0451 (≈ 0.136 µM) | -0.0966 | 4.94
medium (conditioned by secondary species or non-conditioned control): S. aureus | 0.0434 (≈ 0.131 µM) | -0.0957 | 5.13
medium (conditioned by secondary species or non-conditioned control): S. maltophilia | 0.0279 (≈ 0.0843 µM) | -0.0883 | 3.59
medium (conditioned by secondary species or non-conditioned control): S. pneumoniae | 0.0738 (≈ 0.223 µM) | -0.117 | 4.27

Source: the supplement of paper PMC11619387
